Data as given in paper PMC9558053, “Development of a novel high-throughput screen for the identification of new inhibitors of protein S-acylation” (The Journal of Biological Chemistry, 2022).

Molecular target: T1, human zDHHC2 (Homo sapiens, UniProt Q9UIJ5)
T1 construct: expressed in transfected cells; host or cells: HEK293T
T1 sequence (Q9UIJ5 1-367): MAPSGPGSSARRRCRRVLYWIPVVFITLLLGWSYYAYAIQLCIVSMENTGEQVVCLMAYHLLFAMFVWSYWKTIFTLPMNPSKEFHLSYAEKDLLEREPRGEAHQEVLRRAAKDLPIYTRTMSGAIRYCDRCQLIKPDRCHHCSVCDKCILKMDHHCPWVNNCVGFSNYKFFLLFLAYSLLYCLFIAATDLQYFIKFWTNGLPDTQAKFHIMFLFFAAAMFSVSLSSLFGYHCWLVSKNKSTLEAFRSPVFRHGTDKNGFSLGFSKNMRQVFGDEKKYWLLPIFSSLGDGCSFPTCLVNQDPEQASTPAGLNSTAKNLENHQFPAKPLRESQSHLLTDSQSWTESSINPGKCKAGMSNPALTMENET
Assay: GFP-SNAP25b S-acylation in HEK293T cells co-expressing zDHHC2, copper-catalyzed click chemistry, Western blot
Assay type: cell-based
Conditions: for inhibition at 25 µM: HEK-293T, compound 25 μM, 4 h preincubation + 4 h labeling, read-out: SNAP25 S-acylation inhibition (%), zDHHC2; for inhibition at 25 µM / zDHHC2-mediated substrate (SNAP25) S-acylation Hill slope / IC50: in cellulo HEK293T; for zDHHC2-mediated substrate (SNAP25) S-acylation Hill slope / IC50: Western blot; for IC50: read-out: zDHHC2-mediated substrate (SNAP25) S-acylation IC50 (95 CI); for GFP-SNAP25 S-acylation in cell-based assays, newly synthesized compounds: resynthesized (UoS) material vs original hits, Supplemental Fig. 2 (zD2, zD3, zD7, zD15, zD17)
Method: The inhibitory activity of TTZ-1 and TTZ-2 on cells expressing SNAP25 and zDHHC2 was also examined. Human embryonic kidney 293T (HEK293T) cells were transfected with plasmids encoding GFP-tagged SNAP25b and HA-tagged zDHHC2. Cells were then preincubated for 4 h with either dimethyl sulfoxide (DMSO) as a vehicle control or increasing concentrations of TTZ-1/TTZ-2 (diluted in serum-free medium) before being metabolically labeled for a further 4 h with C16:0-azide. Samples were then lysed and processed by copper-catalyzed click chemistry to reveal the extent of S-acylation.
Figure 5 Activity of TTZ-1 and TTZ-2 against SNAP25 S-acylation by human zDHHC2 expressed in mammalian cells. HEK293T cells were transfected with a plasmid encoding GFP-SNAP25b together with a plasmid encoding human zDHHC2 (+zD2) or a control plasmid pEF-BOS-HA. Cells were preincubated for 4 h with increasing concentrations of TTZ-1 (A) or TTZ-2 (B) or DMSO (as a control) before metabolic labeling with 100 μM C16:0-azide for another 4 h. Cells were lysed, and proteins having incorporated C16:0-azide were labeled by click chemistry with an alkyne-IR800 dye. Protein samples were then resolved by SDS-PAGE and transferred to nitrocellulose membranes that were probed with an anti-GFP antibody (IR680). Representative images are shown for cells treated with TTZ-1 (A) or TTZ-2 (B). Top panels, click chemistry signal (top panel, Click [IR800]) and GFP immunoblot (middle panel, GFP [IR680]). Positions of the molecular mass markers (in kilodalton) are indicated on the right side of the membranes. Bottom panels A and B, data from three independent experiments performed in duplicate were quantified, and the inhibition of GFP-SNAP25b S-acylation was determined as stated in the Experimental procedures section. Graphs show mean ± SEM of inhibition of normalized S-acylation (click signal/GFP signal) in the presence of each compound. Data were analyzed and fit to a nonlinear curve using the log(inhibitor) versus normalized response (variable slope) equation. DMSO, dimethyl sulfoxide; HA, hemagglutinin; HEK293T, human embryonic kidney 293T cell line; TTZ, tetrazole; zDHHC, zinc finger DHHC domain–containing protein.
HEK293T cells were plated on poly-D-lysine–coated 24-well plates (catalog no.: 356413; Corning BioCoat, VWR) and transfected with 2.4 μg of pEF-zDHHC2 plasmid (or the control empty plasmid pEF-BOS-HA) for the measurement of zDHHC2 autoacylation and 4.8 μl of Lipofectamine 2000 (Invitrogen). For substrate acylation, cells were transfected with 1.6 μg of pEF-zDHHC plasmid (or the control empty plasmid pEF-BOS-HA) together with 0.8 μg of EGFP-SNAP25b plasmid and 4.8 μl of Lipofectamine 2000. Twenty-four hours post-transfection, cells were washed once with PBS and preincubated with ONO or UoS compounds diluted in 250 μl of serum-free DMEM for 4 h. S-acylation labeling was then started by the addition of 50 μl of 600 μM of either unmodified palmitic acid C16:0 or C16:0-azide (final concentration of 100 μM) diluted in serum-free DMEM supplemented with 1 mg/ml fatty acid–free BSA (Sigma; catalog no.: A7030). Cells were labeled for 4 h, washed once with PBS, then lysed on ice in 100 μl of 50 mM Tris (pH 8) containing 0.5% SDS and protease inhibitors (Sigma; catalog no.: P8340). Conjugation of IR800 alkyne dye or mPEG5K alkyne to C16:0-azide was carried out for 1 h at room temperature with end-over-end rotation by adding an equal volume of freshly prepared click chemistry reaction mixture containing the following: 5 μM IRDye 800CW alkyne (catalog no.: 929-60002; Li-COR) or 200 μM of mPEG5K-alkyne (catalog no.: JKA3177; Sigma), 4 mM CuSO4 (catalog no.: 451657; Sigma), 400 μM Tris[(1-benzyl-1H-1,2,3-triazol-4-yl)methyl]amine (catalog no.: 678937; Sigma), and 8 mM ascorbic acid (catalog no.: A15613; Alpha Aesar) in distilled water. About 67 μl of 4 × SDS-PAGE sample buffer containing 100 mM DTT was then added to the 200 μl sample. […]

With `CCCCCCCOc1ccc(C(=O)Nc2cccc3c2OC(c2nnn[nH]2)CN3)cc1` (centres unmarked) [TTZ-1, N-(2-(1H-Tetrazol-5-yl)-3,4-dihydro-2H-benzo[b][1,4]oxazin-8-yl)-4-(heptyloxy)benzamide] the inhibition at 25 µM was 113 ± 5%, the “zDHHC2-mediated substrate (SNAP25) S-acylation Hill slope” value was 7.6 and the IC50 was 14.4 µM. The “GFP-SNAP25 S-acylation in cell-based assays, newly synthesized compounds” value was “results comparable to the original hit compounds”.
In the case of `O=C(Nc1cccc2c1OC(c1nnn[nH]1)CN2)c1ccc(OCCCCc2ccccc2)cc1` (centres unmarked) [TTZ-2, N-(2-(1H-Tetrazol-5-yl)-3,4-dihydro-2H-benzo[b][1,4]oxazin-8-yl)-4-(4-phenylbutoxy)benzamide], the inhibition at 25 µM is reported as 84 ± 6%, the “zDHHC2-mediated substrate (SNAP25) S-acylation Hill slope” value is reported as 4.6 and the IC50 is reported as 18.8 µM. For the same compound, the “GFP-SNAP25 S-acylation in cell-based assays, newly synthesized compounds” value was “results comparable to the original hit compounds”.
